Measurements from PubChem BioAssay AID248 (DTP/NCI, 2004).
“And” between values parts separate entries of the source, which are not always exact repeats. Equal values may be shown once. Inconclusive results and toxic doses are left out. Cut-off read from the data, not from the text of the source: active = T/C of 150% or more; inactive = T/C below 125%.

System: L1210 leukemia ip in BDF1 mice, survival T/C
Experiment: NCI In Vivo Anticancer Drug Screen. Data for tumor model L1210 Leukemia (intraperitoneal) in B6D2F1 (BDF1) mice
Conditions: endpoint: mean survival time, higher = longer survival
Method in brief: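 Survival endpoint. Drug-treated group vs vehicle group, expressed as T divided by C. Tumor passaged by transplantation.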

[1] = dose: 50.0 mg/kg/injection, schedule: Q01DX009 (ip), vehicle: Klucel (hydroxypropylcellulose) (HPC)
[2] = dose: 100.0 mg/kg/injection, schedule: Q01DX009 (ip), vehicle: Klucel (hydroxypropylcellulose) (HPC)
[3] = dose: 200.0 mg/kg/injection, schedule: Q01DX009 (ip), vehicle: Klucel (hydroxypropylcellulose) (HPC)
[4] = dose: 100.0 mg/kg/injection, schedule: Q04DX003 (ip), vehicle: saline
[5] = dose: 25.0 mg/kg/injection, schedule: Q01DX009 (ip), vehicle: saline
[6] = dose: 50.0 mg/kg/injection, schedule: Q01DX009 (ip), vehicle: saline
[7] = dose: 100.0 mg/kg/injection, schedule: Q01DX009 (ip), vehicle: saline
[8] = dose: 100.0 mg/kg/injection, schedule: Q01DX009 (ip), vehicle: saline with Tween-80
[9] = dose: 100.0 mg/kg/injection, schedule: Q04DX003 (ip), vehicle: saline with Tween-80
[10] = dose: 200.0 mg/kg/injection, schedule: Q01DX009 (ip), vehicle: saline with Tween-80
[11] = dose: 200.0 mg/kg/injection, schedule: Q04DX003 (ip), vehicle: saline with Tween-80
[12] = dose: 400.0 mg/kg/injection, schedule: Q01DX009 (ip), vehicle: saline with Tween-80
[13] = dose: 400.0 mg/kg/injection, schedule: Q04DX003 (ip), vehicle: saline with Tween-80
[14] = dose: 100.0 mg/kg/injection, schedule: Q01DX001 (ip), vehicle: saline
[15] = dose: 200.0 mg/kg/injection, schedule: Q01DX001 (ip), vehicle: saline
[16] = dose: 400.0 mg/kg/injection, schedule: Q01DX001 (ip), vehicle: saline
[17] = dose: 25.0 mg/kg/injection, schedule: Q01DX009 (ip), vehicle: Klucel (hydroxypropylcellulose) (HPC)
[18] = dose: 50.0 mg/kg/injection, schedule: Q04DX003 (ip), vehicle: Klucel (hydroxypropylcellulose) (HPC)
[19] = dose: 100.0 mg/kg/injection, schedule: Q04DX003 (ip), vehicle: Klucel (hydroxypropylcellulose) (HPC)
[20] = dose: 200.0 mg/kg/injection, schedule: Q04DX003 (ip), vehicle: Klucel (hydroxypropylcellulose) (HPC)

Measured: T/C

O=C1C(C2(O)C(=O)Nc3ccccc32)CCCC1C1(O)C(=O)Nc2ccccc21 (centres undefined)
inactive: [1] 97 % of control | [2] 104 % of control | [3] 101 % of control

c1ccc2cc3nc4ccccc4nc3cc2c1
inactive: dose: 100.0 mg/kg/injection, schedule: Q01DX001 (ip), vehicle: acetone 92 % of control | [4] 108 % of control | dose: 200.0 mg/kg/injection, schedule: Q01DX001 (ip), vehicle: acetone 97 % of control | dose: 200.0 mg/kg/injection, schedule: Q04DX003 (ip), vehicle: saline 101 % of control | dose: 400.0 mg/kg/injection, schedule: Q01DX001 (ip), vehicle: acetone 86 % of control | dose: 400.0 mg/kg/injection, schedule: Q04DX003 (ip), vehicle: saline 111 % of control

CC(NC(=O)OCc1ccccc1)C(=O)NC(CC(=O)O)C(=O)O (centres undefined)
inactive: [5] 96 % of control | dose: 25.0 mg/kg/injection, schedule: Q04DX003 (ip), vehicle: saline 93 % of control | [6] 98 % of control | dose: 50.0 mg/kg/injection, schedule: Q04DX003 (ip), vehicle: saline 98 % of control | [7] 93 % of control | [4] 97 % of control

O=C(O)/C=C/c1ccc(/C=C/C(=O)O)cc1
inactive: [8] 95 % of control | [9] 98 % of control | [10] 88 % of control | [11] 96 % of control | [12] 103 % of control | [13] 95 % of control

CCCCOP(=O)(Cc1cc(C)cc(C)c1)OCCCC
inactive: [9] 87 % of control | [11] 101 % of control

CCOc1ccc2ccsc2c1
inactive: [14] 98 % of control | [15] 98 % of control | [16] 96 % of control

CC1CCCCC1OC(=O)CCN1CC1 (centres undefined)
inactive: dose: 3.0 mg/kg/injection, schedule: Q01DX009 (ip), vehicle: Klucel (hydroxypropylcellulose) (HPC) 94 % of control | dose: 6.0 mg/kg/injection, schedule: Q01DX009 (ip), vehicle: Klucel (hydroxypropylcellulose) (HPC) 94 % of control | dose: 12.0 mg/kg/injection, schedule: Q01DX009 (ip), vehicle: Klucel (hydroxypropylcellulose) (HPC) 100 % of control | [17] 94 % of control and 102 % of control | [1] 109 % of control | [18] 108 % of control | [19] 97 % of control and 108 % of control | [20] 104 % of control

Cc1cccc([N+](=O)[O-])c1N
inactive: dose: 50.0 mg/kg/injection, schedule: Q01DX001 (ip), vehicle: carboxymethylcellulose (CMC) 109 % of control | dose: 100.0 mg/kg/injection, schedule: Q01DX001 (ip), vehicle: carboxymethylcellulose (CMC) 109 % of control | dose: 200.0 mg/kg/injection, schedule: Q01DX001 (ip), vehicle: carboxymethylcellulose (CMC) 113 % of control | dose: 400.0 mg/kg/injection, schedule: Q01DX001 (ip), vehicle: carboxymethylcellulose (CMC) 115 % of control

COc1ccc(-n2c(=O)c(N=Nc3ccc(Cl)cc3)c(O)n(-c3ccc(Br)cc3)c2=S)cc1
inactive: dose: 100.0 mg/kg/injection, schedule: Q01DX001 (ip), vehicle: Klucel (hydroxypropylcellulose) (HPC) 94 % of control | dose: 200.0 mg/kg/injection, schedule: Q01DX001 (ip), vehicle: Klucel (hydroxypropylcellulose) (HPC) 94 % of control | dose: 400.0 mg/kg/injection, schedule: Q01DX001 (ip), vehicle: Klucel (hydroxypropylcellulose) (HPC) 92 % of control

CC(=O)CCC1CC(=O)OC1(C)C (centres undefined)
inactive: [14] 102 % of control and 100 % of control | [7] 104 % of control and 88 % of control | dose: 100.0 mg/kg/injection, schedule: Q04DX003 (ip), vehicle: acetone 93 % of control | [15] 102 % of control and 100 % of control | dose: 200.0 mg/kg/injection, schedule: Q01DX009 (ip), vehicle: saline 96 % of control and 88 % of control | dose: 200.0 mg/kg/injection, schedule: Q04DX003 (ip), vehicle: acetone 117 % of control | [16] 96 % of control and 106 % of control | dose: 400.0 mg/kg/injection, schedule: Q01DX009 (ip), vehicle: saline 98 % of control and 86 % of control | dose: 400.0 mg/kg/injection, schedule: Q04DX003 (ip), vehicle: acetone 101 % of control

ClC12CCCC3CCCC(CCC1)C32 (centres undefined)
inactive: [8] 101 % of control | [19] 103 % of control | [10] 90 % of control | [20] 97 % of control | [12] 89 % of control | dose: 400.0 mg/kg/injection, schedule: Q04DX003 (ip), vehicle: Klucel (hydroxypropylcellulose) (HPC) 96 % of control

CCOC(=O)C(C(=O)OCC)C(CC(=O)c1ccccc1)c1ccccc1 (centres undefined)
inactive: [2] 98 % of control | [3] 93 % of control | dose: 400.0 mg/kg/injection, schedule: Q01DX009 (ip), vehicle: Klucel (hydroxypropylcellulose) (HPC) 94 % of control

CC1(C)N=C(N)N=C(N)N1c1ccc(Cl)cc1Cl
inactive: dose: 20.0 mg/kg/injection, schedule: Q04DX003 (ip), vehicle: Klucel (hydroxypropylcellulose) (HPC) 104 % of control | dose: 25.0 mg/kg/injection, schedule: Q01DX001 (ip), vehicle: saline with Tween-80 97 % of control | [17] 105 % of control | dose: 40.0 mg/kg/injection, schedule: Q04DX003 (ip), vehicle: Klucel (hydroxypropylcellulose) (HPC) 100 % of control | dose: 50.0 mg/kg/injection, schedule: Q01DX001 (ip), vehicle: saline with Tween-80 93 % of control | [1] 94 % of control | dose: 80.0 mg/kg/injection, schedule: Q04DX003 (ip), vehicle: Klucel (hydroxypropylcellulose) (HPC) 94 % of control | dose: 100.0 mg/kg/injection, schedule: Q01DX001 (ip), vehicle: saline with Tween-80 97 % of control | [14] 100 % of control | [19] 94 % of control

C=CCc1cn(C2OC(COC(=O)c3ccccc3)C(OC(=O)c3ccccc3)C2OC(=O)c2ccccc2)c(=O)[nH]c1=O (centres undefined)
inactive: dose: 12.5 mg/kg/injection, schedule: Q01DX005 (ip), vehicle: saline 92 % of control | dose: 12.5 mg/kg/injection, schedule: Q01DX009 (ip), vehicle: saline 95 % of control | dose: 25.0 mg/kg/injection, schedule: Q01DX005 (ip), vehicle: saline 92 % of control | [5] 95 % of control | dose: 50.0 mg/kg/injection, schedule: Q01DX005 (ip), vehicle: saline 94 % of control | [6] 98 % of control

CC(NC(=O)Oc1ccccc1)Oc1ccccc1 (centres undefined)
inactive: [9] 96 % of control | [11] 101 % of control | [13] 96 % of control

O=C1C(=O)C(C(=O)c2ccccc2)C(=O)C1C(=O)c1ccccc1 (centres undefined)
inactive: dose: 55.0 mg/kg/injection, schedule: Q01DX Z (ip), vehicle: saline 109 % of control | dose: 83.0 mg/kg/injection, schedule: Q01DX Z (ip), vehicle: saline 100 % of control | dose: 125.0 mg/kg/injection, schedule: Q01DX Z (ip), vehicle: saline 93 % of control

N#C[Se]C[Se]C#N
inactive: dose: 1.56 mg/kg/injection, schedule: Q01DX001 (ip), vehicle: saline 95 % of control | dose: 3.13 mg/kg/injection, schedule: Q01DX001 (ip), vehicle: saline 100 % of control | dose: 6.25 mg/kg/injection, schedule: Q01DX001 (ip), vehicle: saline 100 % of control

Nc1ccc(-c2cc3ccccc3oc2=O)cc1
inactive: dose: 6.25 mg/kg/injection, schedule: Q04DX002 (ip), vehicle: Klucel (hydroxypropylcellulose) (HPC) 100 % of control and 119 % of control | dose: 12.5 mg/kg/injection, schedule: Q04DX002 (ip), vehicle: Klucel (hydroxypropylcellulose) (HPC) 92 % of control and 111 % of control | dose: 25.0 mg/kg/injection, schedule: Q04DX002 (ip), vehicle: Klucel (hydroxypropylcellulose) (HPC) 92 % of control and 102 % of control

COc1ccc2c3c1OC1C4(CCC5C(C2)N(CC2CC2)CCC351)OCCO4 (centres undefined)
inactive: dose: 12.5 mg/kg/injection, schedule: Q04DX003 (ip), vehicle: Klucel (hydroxypropylcellulose) (HPC) 101 % of control | [17] 95 % of control | dose: 25.0 mg/kg/injection, schedule: Q04DX003 (ip), vehicle: Klucel (hydroxypropylcellulose) (HPC) 103 % of control | [1] 94 % of control | [18] 101 % of control | [2] 91 % of control | [19] 101 % of control
